Measurements: PubChem BioAssay AID1918955 (Molecular Pharmacology Branch, DTP, NCI, 2023)

Test system: NCI/ADR-RES complex spheroid viability
Experiment: Anticancer human tumor NCI/ADR-RES cell line growth inhibition;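 also: spheroids exposed to compounds for 7 days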;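 as to viability, T/C: 100% = DMSO vehicle treated spheroids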
Settings: for IC50: curve of first compound; for viability, T/C: stronger effect = lower value
In short: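 Drug combinations with the LSD1 inhibitor iadademstat tested on tumor cells co-cultured as spheroids with endothelial cells and mesenchymal stem cells. Concentrations descended in half-log increments from clinical Cmax or 10 microM.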

CC[C@@]1(O)C(=O)OCc2c1cc1n(c2=O)Cc2cc3c(CN(C)C)c(O)ccc3nc2-1 + NC1CCC(NC2CC2c2ccccc2)CC1
IC50 (second compound 0.1 µM): 8.31 nM | IC50 (second compound 0.316 µM): 8.18 nM | IC50 (second compound 1 µM): 9.09 nM | IC50 (second compound 3.16 µM): 7.45 nM | IC50 (second compound 10 µM): 5.56 nM | viability, T/C (second compound 0.1 µM, first compound 0.000316 µM): 104% | viability, T/C (second compound 0.1 µM, first compound 0.001 µM): 97.8% | viability, T/C (second compound 0.1 µM, first compound 0.00316 µM): 86.5% | viability, T/C (second compound 0.1 µM, first compound 0.01 µM): 43.4% | viability, T/C (second compound 0.1 µM, first compound 0.0316 µM): 9.03% | viability, T/C (second compound 0.1 µM, first compound 0.1 µM): 3.21% | viability, T/C (second compound 0.316 µM, first compound 0.000316 µM): 118% | viability, T/C (second compound 0.316 µM, first compound 0.001 µM): 116% | viability, T/C (second compound 0.316 µM, first compound 0.00316 µM): 86.7% | viability, T/C (second compound 0.316 µM, first compound 0.01 µM): 42.9% | viability, T/C (second compound 0.316 µM, first compound 0.0316 µM): 10.8% | viability, T/C (second compound 0.316 µM, first compound 0.1 µM): 2.57% | viability, T/C (second compound 1 µM, first compound 0.000316 µM): 103% | viability, T/C (second compound 1 µM, first compound 0.001 µM): 103% | viability, T/C (second compound 1 µM, first compound 0.00316 µM): 92.9% | viability, T/C (second compound 1 µM, first compound 0.01 µM): 46.2% | viability, T/C (second compound 1 µM, first compound 0.0316 µM): 8.05% | viability, T/C (second compound 1 µM, first compound 0.1 µM): 2.63% | viability, T/C (second compound 3.16 µM, first compound 0.000316 µM): 108% | viability, T/C (second compound 3.16 µM, first compound 0.001 µM): 98.8% | viability, T/C (second compound 3.16 µM, first compound 0.00316 µM): 91.3% | viability, T/C (second compound 3.16 µM, first compound 0.01 µM): 35.6% | viability, T/C (second compound 3.16 µM, first compound 0.0316 µM): 10.1% | viability, T/C (second compound 3.16 µM, first compound 0.1 µM): 4.55% | viability, T/C (second compound 10 µM, first compound 0.000316 µM): 98.5% | viability, T/C (second compound 10 µM, first compound 0.001 µM): 95.3% | viability, T/C (second compound 10 µM, first compound 0.00316 µM): 66.8% | viability, T/C (second compound 10 µM, first compound 0.01 µM): 32% | viability, T/C (second compound 10 µM, first compound 0.0316 µM): 7.06% | viability, T/C (second compound 10 µM, first compound 0.1 µM): 2.23%

CCc1c2c(nc3ccc(O)cc13)-c1cc3c(c(=O)n1C2)COC(=O)[C@]3(O)CC + NC1CCC(NC2CC2c2ccccc2)CC1
IC50 (second compound 0.1 µM): < 0.949 nM | IC50 (second compound 0.316 µM): < 0.949 nM | IC50 (second compound 1 µM): < 0.949 nM | IC50 (second compound 3.16 µM): < 0.949 nM | IC50 (second compound 10 µM): < 0.949 nM | viability, T/C (second compound 0.1 µM, first compound 0.000949 µM): 5.27% | viability, T/C (second compound 0.1 µM, first compound 0.003 µM): 2.59% | viability, T/C (second compound 0.1 µM, first compound 0.00949 µM): 0.6% | viability, T/C (second compound 0.1 µM, first compound 0.03 µM): 1.16% | viability, T/C (second compound 0.1 µM, first compound 0.0949 µM): 1.11% | viability, T/C (second compound 0.1 µM, first compound 0.3 µM): 3.88% | viability, T/C (second compound 0.316 µM, first compound 0.000949 µM): 2.94% | viability, T/C (second compound 0.316 µM, first compound 0.003 µM): 1.44% | viability, T/C (second compound 0.316 µM, first compound 0.00949 µM): 1.36% | viability, T/C (second compound 0.316 µM, first compound 0.03 µM): 2.53% | viability, T/C (second compound 0.316 µM, first compound 0.0949 µM): 0.44% | viability, T/C (second compound 0.316 µM, first compound 0.3 µM): 0.37% | viability, T/C (second compound 1 µM, first compound 0.000949 µM): 6.45% | viability, T/C (second compound 1 µM, first compound 0.003 µM): 1.09% | viability, T/C (second compound 1 µM, first compound 0.00949 µM): 1.09% | viability, T/C (second compound 1 µM, first compound 0.03 µM): 1.03% | viability, T/C (second compound 1 µM, first compound 0.0949 µM): 0.47% | viability, T/C (second compound 1 µM, first compound 0.3 µM): 0.58% | viability, T/C (second compound 3.16 µM, first compound 0.000949 µM): 2.6% | viability, T/C (second compound 3.16 µM, first compound 0.003 µM): 1.07% | viability, T/C (second compound 3.16 µM, first compound 0.00949 µM): 0.88% | viability, T/C (second compound 3.16 µM, first compound 0.03 µM): 0.53% | viability, T/C (second compound 3.16 µM, first compound 0.0949 µM): 1.24% | viability, T/C (second compound 3.16 µM, first compound 0.3 µM): 2.59% | viability, T/C (second compound 10 µM, first compound 0.000949 µM): 4.02% | viability, T/C (second compound 10 µM, first compound 0.003 µM): 1.26% | viability, T/C (second compound 10 µM, first compound 0.00949 µM): 0.71% | viability, T/C (second compound 10 µM, first compound 0.03 µM): 0.53% | viability, T/C (second compound 10 µM, first compound 0.0949 µM): 0.22% | viability, T/C (second compound 10 µM, first compound 0.3 µM): 4.32%
